# Measurements reported in US4179451A, “Novel hydroxy substituted 15-deoxy-5-cis-prostenoic acids and esters” (American Cyanamid Company, priority 1978, dated 1979).
# Where two headings read alike, the source gives them in different places.
# Experiments:
# [1] = system: bronchospasms elicited by histamine; test: Bronchodilator Activity (Konzett Assays), histamine; assay type: in vivo, guinea pigs; settings: Cavia porcellus; three logarithmic cumulative intravenous doses; spasmogen histamine; read-out: ED50, Spasmogenic Agent histamine
# Procedure: (§1) The compounds of this invention are useful as bronchodilators for the treatment of asthma and chronic bronchitis. Bronchodilator activity is determined in guinea pigs against bronchospasms elicited by intravenous injections of 5-hydroxytryptamine, histamine or acetylcholine by the Konzett procedure. [See J. Lulling, P. Lievens, F. El Sayed and J. Prignot, Arzneimittel-Forschung, 18, 955 (1968).]
# (§2) In Table IV which follows bronchodilator activity for representative compounds of this invention against one or more of three spasmogenic agents is expressed as an ED50 determined from the results obtained with three logarithmic cummulative intravenous doses. In this assay, these compounds of this invention provide an effect of longer duration than does natural l-PGE1 or l-PGE2.
# [2] = system: basal gastric acid secretion; test: Inhibition of basal gastric acid secretion in the Acute Gastric Fistula Rat; assay type: in vivo, Female Sprague-Dawley rats; settings: read-out: % Inhibition of Total Acid or Output; for inhibition in vivo at 2.5 mg/kg: intraduodenal 2.5 mg./kg.; for inhibition in vivo at 0.63 mg/kg: intraduodenal 0.63 mg./kg.
# [3] = system: bronchospasms elicited by 5-hydroxytryptamine; test: Bronchodilator Activity (Konzett Assays), 5-hydroxytryptamine; assay type: in vivo, guinea pigs; settings: Cavia porcellus; three logarithmic cumulative intravenous doses; spasmogen 5-hydroxytryptamine; read-out: ED50, Spasmogenic Agent 5-hydroxytryptamine
# Procedure: as §1, §2
# [4] = system: mean arterial blood pressure; test: Hypotensive Response (normotensive rat); assay type: in vivo, Male Wistar strain rats; settings: anesthetized rat
# Procedure: This procedure is a modification of the techniques described by Pike et al., Prostaglandins, Nobel Symposium 2, Stockholm, June, 1966; p. 165.
# Male Wistar strain rats (Royal Hart Farms) averaging approximately 250 grams in weight were fastened to rat boards in a supine position by means of canvas vests and limb ties. The femoral area was infiltrated subcutaneously with lidocaine and the iliac artery and vein were exposed and cannulated. Arterial blood pressure (systolic/diastolic) was recorded using a Statham P23 Bb pressure transducer-Offner dynograph system. To obtain a stable blood pressure, the animals were anethetized before use with pentobarbital, 30 mg./kg. of body weight intravenously, and also were given hexamethoxium bitartrate, 2 mg./kg. of body weight intravenously. The test compounds were prepared by ultrasonic dispersion in a Saline-Tween 80® vehicle. A constant intravenous dose volume of 0.5 ml. was administered and test doses ranged from 0.1 to 10.0 mg./kg. of body weight.
# In Table V below are recorded the percent decrease from normal of mean arterial blood pressure induced by given doses of representative compounds of this invention.
# [5] = system: ulcerogenic properties of indomethacin; test: protection against the ulcerogenic properties of indomethacin; assay type: in vivo, Rats; settings: indomethacin 20 mg./kg. s.c., score 0 (normal stomach) to 4, control 3.0
# Procedure: The protection against the ulcerogenic properties of indomethacin was determined in the following manner. Rats were starved for 48 hours (water was given ad libitum). Indomethacin (20 mg./kg. of body weight) was administered by the subcutaneous route and one-half the dose of the test compound was administered by gavage at the same time. After three hours, the second half of the test compound was administered also by gavage. Five hours after the administration of indomethacin the animals were decapitated and the stomachs removed. The stomachs were washed with distilled water, blotted on gauze, cut along the larger curvature, and the contents rinsed with distilled water. The stomachs were spread out, pinned on a cork and visualized under magnifying glass for ulcers. The criteria for scoring of ulcers was as previously reported [Abdel-Galil et al. Brit. J. Pharmac. Chemotherapy 33:1-14 (1968)].
# 1--Petechial hemorrhage or pin point ulcer
# 3--Many ulcers, a few large
# 4--Many ulcers, mainly large
# A difference of at least 0.7 unit between the scores for control animals (treated with indomethacin but not test compound) and animals treated with indomethacin and test compound is considered indicative of activity from the test compound. […]
# [6] = system: bronchospasms elicited by acetylcholine; test: Bronchodilator Activity (Konzett Assays), acetylcholine; assay type: in vivo, guinea pigs; settings: Cavia porcellus; three logarithmic cumulative intravenous doses; spasmogen acetylcholine; read-out: ED50, Spasmogenic Agent Acetylcholine
# Procedure: as §1, §2
# [7] = system: basal gastric acid secretion; test: Inhibition of basal gastric acid secretion in the Acute Gastric Fistula Rat; assay type: in vivo, Female Sprague-Dawley rats; settings: 1 h, intraduodenal 10 mg./kg., after 60 minutes, read-out: % Inhibition of Total Acid or Output
# Procedure: Inhibition of basal gastric acid secretion can be determined by the following procedure. Female Sprague-Dawley rats weighing 140-160 grams are fastened in individual cages for 18-24 hours. The rats are then lightly anesthetized with ether and their front teeth extracted to avoid destruction of the plastic cannula. A midline incision is then made and the stomach and duodenum exposed. A flanged polyvinyl tube is inserted into the fundic portion of the stomach and secured with a purse string suture line using 4-O Mersilene. The rat is then dosed by injection of the compound into the duodenum (1.0 ml. per 100 gram body weight). After dosing, the abdominal wall and skin are closed using metal wound clips. The rat is replaced in a cage containing a longitudinal slit to allow the polyvinyl tube to hang freely. An 8 ml. plastic collecting tube is attached to the flanged cannula and hangs freely below the cage. The first 30 minute sample is discarded designating this time as zero. The collecting tube is attached again and samples removed at the end of 60 and/or 120 minutes. The hourly samples are then transferred to a 15 ml. centrifuge and centrifuged for 5-10 minutes. Total and sediment volume are then recorded with supernatent volume being used as volume of secretion. A 1 ml. or less aliquot is then removed and placed in a 50 ml. beaker containing 10 ml. of distilled water. This sample is then titrated using 0.01 N to Na H to pH 7.0 using a Beckman zeromatic pH meter. Volume, titratable acidity (meq/L) and total acid output (μeq/hour) are recorded. Percent inhibition is determined by comparison with the appropriate control. Groups of three rats are used for preliminary testing, and groups of six rats are used for dose-response evaluations. All compounds are administered in a vehicle consisting of 0.5% methocel, 0.4% tween 80, and saline at a constant volume of 1 ml./100 gram rat. Samples are dispersed by sonification. Percent inhibition is calculated on basis of concurrent vehicle control.
# In Table III which follows is given the effect on total acid output after 60 minutes of a 10 mg./kg. intraduodenal dose of representative compounds of this invention.
# [8] = system: gastric acid secretion; test: Gastric acid secretion inhibitory action (Shay rat procedure); assay type: in vivo, rats (male, CFE strain)
# [9] = 1 h, oral dose 10 mg./kg., after 60 minutes
compound,measurement,setting,value
"CCCCC(O)C/C=C/[C@H]1[C@H](O)CC(=O)[C@@H]1C/C=C\CCCC(=O)O (relative stereo) [9-oxo-11α,16-dihydroxy-5-cis; 13-trans-prostadienoic acid]",ED50,[1],2.1 µg/kg
same,inhibition in vivo at 2.5 mg/kg,"[2]; 1 h, after 60 minutes",42%
same,ED50,[3],3.6 µg/kg
same,% Decrease in Mean Arterial Blood Pressure,[4]; intravenous 2.1 mg./kg.,27%
same,Score treated,[5]; total oral dose 0.39 mg./kg. of body weight,2.0
same,Score treated,[5]; total oral dose 0.78 mg./kg. of body weight,1.0
same,ED50,[6],17.3 µg/kg
same,inhibition in vivo at 10 mg/kg,[7],69%
same,Percent Inhibition,[8]; subcutaneous dose 0.4 mg./kg.,35%
same,Percent Inhibition,[8]; subcutaneous dose 0.8 mg./kg.,44%
same,Percent Inhibition,[8]; subcutaneous dose 1.6 mg./kg.,48%
"CCCC(C)C(O)C/C=C/[C@H]1[C@H](O)CC(=O)[C@@H]1C/C=C\CCCC(=O)O (relative stereo) [9-oxo-11α,16-dihydroxy-17-methyl-5-cis,13-trans-prostadienoic acid]",ED50,[1],0.49 µg/kg
same,inhibition in vivo at 10 mg/kg,[2]; [9],89%
same,inhibition in vivo at 10 mg/kg,"[2]; 2 h, oral dose 10 mg./kg., after 120 minutes",85%
same,ED50,[3],1.9 µg/kg
same,% Decrease in Mean Arterial Blood Pressure,[4]; intravenous 1.0 mg./kg.,42%
same,ED50,[6],3 µg/kg
same,inhibition in vivo at 10 mg/kg,[7],93%
"CCC/C=C/C(O)C/C=C/[C@H]1[C@H](O)CC(=O)[C@@H]1C/C=C\CCCC(=O)O (relative stereo) [9-oxo-11α,16-dihydroxy-20-methyl-5-cis,13-trans,17-trans-prostatrienoic acid]",ED50,[1],2.2 µg/kg
same,ED50,[3],1.2 µg/kg
same,ED50,[6],4 µg/kg
same,inhibition in vivo at 10 mg/kg,[7],44%
"CCCCCC(O)C/C=C/[C@H]1[C@H](O)CC(=O)[C@@H]1C/C=C\CCCC(=O)O (relative stereo) [9-oxo-11α,16-dihydroxy-20-methyl-5-cis,13-trans-prostadienoic acid]",ED50,[1],0.29 µg/kg
same,ED50,[3],0.32 µg/kg
same,ED50,[6],0.72 µg/kg
same,inhibition in vivo at 10 mg/kg,[7],42%
"CCCCCC(/C=C/[C@H]1[C@H](O)CC(=O)[C@@H]1C/C=C\CCCC(=O)O)CO (relative stereo) [9-oxo-11α-hydroxy-15-hydroxymethyl-5-cis,13-trans-prostadienoic acid]",inhibition in vivo at 10 mg/kg,[7],5%
"CCCCC(C/C=C/[C@H]1[C@H](OC2CCCCO2)CC(=O)[C@@H]1C/C=C\CCCC(=O)O)OC(c1ccccc1)(c1ccccc1)c1ccccc1 (relative stereo) [9-oxo-11α-tetrahydropyranyloxy-16-triphenylmethoxy-5-cis,13-trans-prostadienoic acid]",inhibition in vivo at 10 mg/kg,[7],68%
"CC/C=C/C(O)C/C=C/[C@H]1C=CC(=O)[C@@H]1C/C=C\CCCC(=O)O (relative stereo) [9-oxo-16-hydroxy-5-cis,10,13-trans,17-trans-prostatetraenoic acid]",inhibition in vivo at 10 mg/kg,[2]; [9],43%
same,inhibition in vivo at 10 mg/kg,[7],83%
"CCCCC(O)C/C=C/[C@H]1C=CC(=O)[C@@H]1C/C=C\CCCC(=O)O (relative stereo) [9-oxo-16-hydroxy-5-cis-10,13-trans-prostatrienoic acid]",ED50,[1],81 µg/kg
same,ED50,[3],125 µg/kg
same,ED50,[6],1540 µg/kg
same,inhibition in vivo at 10 mg/kg,[7],44%
"CCC/C=C/C(O)C/C=C/[C@H]1C=CC(=O)[C@@H]1C/C=C\CCCC(=O)O (relative stereo) [9-oxo-16-hydroxy-20-methyl-5-cis,10,13-trans,17-trans-prostatetraenoic acid]",ED50,[1],369 µg/kg
same,ED50,[3],625 µg/kg
same,ED50,[6],2280 µg/kg
"CCCC(C)C(O)C/C=C/[C@@H]1[C@@H](C/C=C\CCCC(=O)O)[C@@H](O)C[C@H]1O (relative stereo) [9α,11α,16-trihydroxy-17-methyl-5-cis,13-trans-prostadienoic acid]",inhibition in vivo at 0.63 mg/kg,"[2]; 1 h, after 60 minutes",55%
same,inhibition in vivo at 2.5 mg/kg,"[2]; 1 h, after 60 minutes",66%
same,inhibition in vivo at 0.63 mg/kg,"[2]; 2 h, after 120 minutes",47%
same,inhibition in vivo at 2.5 mg/kg,"[2]; 2 h, after 120 minutes",62%
same,inhibition in vivo at 10 mg/kg,"[2]; 2 h, intraduodenal 10 mg./kg., after 120 minutes",98%
same,inhibition in vivo at 10 mg/kg,[7],96%
"CCCCC(O)C/C=C/[C@@H]1[C@@H](C/C=C\CCCC(=O)O)[C@H](O)C[C@H]1O (relative stereo) [9β,11α,16-trihydroxy-5-cis,13-trans-prostadienoic acid]",% Decrease in Mean Arterial Blood Pressure,[4]; intravenous 2.1 mg./kg.,24%
"CCCCCCCCCCOC(=O)CCC/C=C\C[C@H]1C(=O)C[C@@H](O)[C@@H]1/C=C/CC(O)CCCC (relative stereo) [decyl 9-oxo-11α,16-dihydroxy-5-cis,13-trans-prostadienoate]",inhibition in vivo at 10 mg/kg,[7],60%
"CCCCC(O)C/C=C/[C@H]1[C@H](O)CC(=O)[C@@H]1C/C=C\CCCC(=O)OC (relative stereo) [methyl 9-oxo-11α,16-dihydroxy-5-cis,13-trans-prostadienoate]",inhibition in vivo at 0.625 mg/kg,"[2]; 1 h, oral dose 0.625 mg./kg., after 60 minutes",51%
same,inhibition in vivo at 1.25 mg/kg,"[2]; 1 h, oral dose 1.25 mg./kg., after 60 minutes",75%
same,inhibition in vivo at 10 mg/kg,[7],100%
"CCCC(C)C(O)C/C=C/[C@H]1[C@H](O)CC(=O)[C@@H]1C/C=C\CCCC(=O)OC (relative stereo) [methyl 9-oxo-11α,16-dihydroxy-17-methyl-5-cis,13-trans-prostadienoate]",% Decrease in Mean Arterial Blood Pressure,[4]; intravenous 1.2 mg./kg.,42%
same,inhibition in vivo at 10 mg/kg,[7],76%
